We go through two molecules from patent publication US20220257664A1, “METHOD FOR REGULATION OF SELECTIVE DIFFERENTIATION OF MUSCULOSKELETAL STEM CELLS” (CELLATOZ THERAPEUTICS, INC., priority 2019, published 2022).

One assay deals with hMSSCs. In words: Induction of selective differentiation of hMSSCs transplanted into mouse. Particulars: mixed with heparin, transplanted into subcutaneous tissue of mouse; FIG. 8. The format is in vivo. The procedure:
In order to measure the possibility of selective differentiation of hMSSCs, hMSSCs were transplanted into the kidney (kidney capsule) or subcutaneous tissue of Balb/c nude mouse by pretreating with various growth factors such as connective tissue growth factor, transforming growth factor, insulin, fibroblast growth factor, etc. and then preparing into a cell aggregate (4×10^5 cells) or mixing with a cell carrier. 3-6 weeks after the transplantation, tissue was analyzed after removing the transplanted cells.
For investigation of the selective differentiation capacity of the hMSSCs induced in the same manner as in Example 2 into muscle in vivo, hMSSCs were mixed with fibrin glue to which heparin was added and then transplanted into the subcutaneous tissue of an immunodeficient mouse. 7 weeks after the transplantation of hMSSCs, tissue was stained with H&E and the STEM101 antibody (Takara, Japan) binding to the human cell nucleus marker in order to identify whether the differentiated tissue was derived from the hMSSCs. In addition, the differentiated tissue was immunofluorescence staining with an antibody against the muscle marker MyoD (Thermo Fisher Scientific Inc., USA) in order to identify muscle cells. The cell nuclei were counterstained with DAPI. […]

The test system of another assay is hESCs. In words: Differentiation tendency of MSSC medium vs. CM medium (number of differentiations out of 20 observations). The format is cell-based, human. The conditions noted are these: noggin contained, as compared to CM medium. As to the method: The differentiation capacity of a medium (hereinafter, referred to as “CM medium”) obtained by replacing human noggin (Life Technologies), which is the ingredient 1) of the seven ingredients of the MSSC medium of Example 2, with conditioned medium (culture supernatant obtained after culturing CF1 cells for 24 hours using complete medium wherein DMEM/F12 is replaced with knockout DMEM (knockout DMEM supplemented with 20% knockout serum replacement (Invitrogen, USA), 1 mM glutamine, 1% nonessential amino acids (Invitrogen, USA), 0.1 mM β-mercaptoethanol, 0.1% penicillin-streptomycin and 5 mg/mL bovine serum albumin) (the remaining ingredients 2)-7) are the same) was compared with that of the MSSC medium.
Noggin is generally used to maintain the characteristics of hESCs during culturing (Chaturvedi G, Simone P D, Ain R, Soares M J, Wolfe M W. Noggin maintains pluripotency of human embryonic stem cells grown on Matrigel. Cell Prolif. 2009 August; 42(4): 425-33).

Where only a bound is given, the exact number is not on record here.

Turning to heparin, the “selective differentiation of hMSSCs” value with hMSSCs is listed as “differentiated selectively into muscle only”.

B1: noggin: human noggin, ingredient 1) of the MSSC medium, 250 ng/mL (protein, UniProt Q13253 28-232, looked up)
Noggin: QHYLHIRPAPSDNLPLVDLIEHPDPIFDPKEKDLNETLLRSLLGGHYDPGFMATSPPEDRPGGGGGAAGGAEDLAELDQLLRQRPSGAMPSEIKGLEFSEGLAQGKKQRLSKKLRRKLQMWLWSQTFCPVLYAWNDLGSRFWPRYVKVGSCFSKRSCSVPEGMVCKPSKSVHLTVLRWRCQRRGGQRCGWIPIQYPIISECKCSC
In the case of B1, in the assay with hESCs, the “increase of tendency of osteogenic differentiation” value is at least 10 times.
